Experimental data as given in patent US20240090503A1, “FUNGICIDAL OXADIAZOLES AND THEIR MIXTURES” (FMC CORPORATION, priority 2020, published 2024).
Marks after values point to notes of the source that are not given here.

Legend:
Format in all cases: in vivo
[1] = tested on: Zymoseptoria tritici (the causal agent of wheat leaf blotch); experiment: Test B: preventive spray on wheat seedlings, wheat leaf blotch, visual disease rating; conditions: wheat seedlings
How it was run: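 This is a preventive test: spray application preceded Zymoseptoria tritici spore inoculation by one day. Test suspensions were in acetone/water with 250 ppm PEG400 surfactant, at the listed ppm rate. After 48 h saturated humidity at 24° C and 17 days at 20° C, visual ratings scored control from 0 to 100%.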

[2] = tested on: Phakopsora pachyrhizi (the causal agent of Asian soybean rust); experiment: Test A: preventive spray on soybean seedlings, Asian soybean rust, visual disease rating; conditions: soybean seedlings
How it was run: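 Preventive test: soybean seedlings received a run-off spray of compound suspended at the set ppm in 50/50 acetone/water plus 250 ppm PEG400, and one day later a P. pachyrhizi spore inoculum. Visual scoring (0 none to 100 full disease control) followed 24 h saturated incubation and 8 days' growth chamber, both at 22° C.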

[3] = tested on: Puccinia recondita f. sp. tritici (the causal agent of wheat leaf rust); experiment: Test C: preventive spray on wheat seedlings, wheat leaf rust, visual disease rating; conditions: wheat seedlings
How it was run: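 Wheat seedlings sprayed to run-off with compound in acetone/water (50/50) with 250 ppm PEG400, then inoculated with spores the following day. After 24 h saturated humidity at 20° C. and 6 days in growth chamber at 20° C., disease rated visually as % control relative to untreated controls.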

[4] = test suspension 10 ppm, 100 = 100% disease control, 0 = no control
[5] = 250 ppm test suspension, 100 = 100% disease control
[6] = 10 ppm test suspension, 100 = 100% disease control, 0 = no control
[7] = 50 ppm test suspension, 100 = 100% disease control, 0 = no control

C=CCOC(=O)c1coc(Cc2ccc(-c3noc(C(F)(F)F)n3)cc2)n1 [compound 334]
Test B disease control rating ([1]; test suspension 250 ppm): 92* %
Test A disease control rating [2, 4]: 99%
Test C disease control rating ([3]; test suspension 10 ppm): 86%

CC(C)COC(=O)c1coc(Cc2ccc(-c3noc(C(F)(F)F)n3)cc2)n1 [compound 335]
Test B disease control rating ([1]; test suspension 250 ppm): 73* %
Test A disease control rating [2, 4]: 100%
Test C disease control rating ([3]; test suspension 10 ppm): 94%

Cc1noc(C)c1COc1ccc(-c2noc(C(F)(F)F)n2)cc1 [compound 338]
Test B disease control rating ([1]; test suspension 250 ppm): 10* %
Test A disease control rating [2, 4]: 99%
Test C disease control rating ([3]; test suspension 10 ppm): 0%

O=C(NC1CC1)c1csc(Cc2ccc(-c3noc(C(F)(F)F)n3)cc2)n1 [compound 342]
Test B disease control rating ([1]; test suspension 250 ppm): 99* %
Test A disease control rating [2, 4]: 100%
Test C disease control rating ([3]; test suspension 10 ppm): 100%

NC(=O)c1csc(Cc2ccc(-c3noc(C(F)(F)F)n3)cc2)n1 [compound 343]
Test B disease control rating ([1]; test suspension 250 ppm): 97* %
Test A disease control rating [2, 4]: 100%
Test C disease control rating ([3]; test suspension 10 ppm): 100%

CCOC(=O)c1csc(Cc2ccc(-c3noc(C(F)(F)F)n3)cc2)n1 [compound 344]
Test B disease control rating ([1]; test suspension 250 ppm): 96* %
Test A disease control rating [2, 4]: 100%
Test C disease control rating ([3]; test suspension 10 ppm): 93%

O=C(O)c1csc(Cc2ccc(-c3noc(C(F)(F)F)n3)cc2)n1 [compound 345]
Test B disease control rating ([1]; test suspension 250 ppm): 50* %
Test A disease control rating [2, 4]: 96%
Test C disease control rating ([3]; test suspension 10 ppm): 68%

CCOC(=O)c1cnn(Cn2nc(-c3noc(C(F)(F)F)n3)ccc2=O)c1 [compound 346]
Test B disease control rating ([1]; test suspension 250 ppm): 0* %
Test A disease control rating [2, 4]: 0%
Test C disease control rating ([3]; test suspension 10 ppm): 0%

CCOC(=O)c1cnn(CCn2nc(-c3noc(C(F)(F)F)n3)ccc2=O)c1 [compound 347]
Test B disease control rating ([1]; test suspension 250 ppm): 0* %
Test A disease control rating [2, 4]: 0%
Test C disease control rating ([3]; test suspension 10 ppm): 0%

CCNC(=O)c1ccc(COc2ccc(-c3noc(C(F)(F)F)n3)cc2)s1 [compound 352]
Test B disease control rating ([1]; test suspension 250 ppm): 0* %
Test A disease control rating [2, 4]: 87%
Test C disease control rating ([3]; test suspension 10 ppm): 68%

COC(=O)c1ccc(COc2ccc(-c3noc(C(F)(F)F)n3)cc2)cc1 [compound 354]
Test B disease control rating ([1]; test suspension 250 ppm): 20* %
Test A disease control rating [2, 4]: 0%
Test C disease control rating ([3]; test suspension 10 ppm): 0%

FC(F)(F)c1nc(-c2ccc(OCc3nc4ccccc4o3)cc2)no1 [compound 355]
Test B disease control rating ([1]; test suspension 250 ppm): 4* %
Test A disease control rating [2, 4]: 0%
Test C disease control rating ([3]; test suspension 10 ppm): 0%

CN(C)N1C(=O)C(Cl)=C(Oc2ccc(-c3noc(C(F)(F)F)n3)cc2)C1=O [compound 356]
Test B disease control rating ([1]; test suspension 250 ppm): 96* %
Test A disease control rating ([2]; test suspension 250 ppm): 99%
Test C disease control rating ([3]; test suspension 250 ppm): 94%

CC(C)(C)NN1C(=O)C(Cl)=C(Oc2ccc(-c3noc(C(F)(F)F)n3)cc2)C1=O [compound 357]
Test B disease control rating ([1]; test suspension 250 ppm): 99* %
Test A disease control rating ([2]; test suspension 250 ppm): 98%
Test C disease control rating ([3]; test suspension 250 ppm): 91%

CCOC(=O)c1cnn(CCCn2nc(-c3noc(C(F)(F)F)n3)ccc2=O)c1 [compound 358]
Test B disease control rating ([1]; test suspension 250 ppm): 0* %
Test A disease control rating [2, 4]: 0%
Test C disease control rating ([3]; test suspension 10 ppm): 0%

N#Cc1cnn(CCCc2ccc(-c3noc(C(F)(F)F)n3)cc2)c1 [compound 359]
Test B disease control rating ([1]; test suspension 250 ppm): 99* %
Test A disease control rating [2, 4]: 100%
Test C disease control rating ([3]; test suspension 10 ppm): 95%

CCCOC(=O)c1cnn(CCCc2ccc(-c3noc(C(F)(F)F)n3)cc2)c1 [compound 365]
Test B disease control rating ([1]; test suspension 250 ppm): 80* %
Test A disease control rating ([2]; test suspension 50 ppm): 100%
Test C disease control rating ([3]; test suspension 50 ppm): 99%

N#Cc1csc(Cc2ccc(-c3noc(C(F)(F)F)n3)cc2)n1 [compound 370]
Test B disease control rating ([1]; test suspension 250 ppm): 98* %
Test A disease control rating ([2]; test suspension 250 ppm): 100%
Test C disease control rating ([3]; test suspension 250 ppm): 100%

O=C1CCCN1Cc1ccc(-c2noc(C(F)(F)F)n2)cc1 [compound 371]
Test B disease control rating ([1]; test suspension 250 ppm): 95* %
Test A disease control rating ([2]; test suspension 250 ppm): 100%
Test C disease control rating ([3]; test suspension 250 ppm): 100%

O=C1COCCN1Cc1ccc(-c2noc(C(F)(F)F)n2)cc1 [compound 372]
Test B disease control rating ([1]; test suspension 250 ppm): 99* %
Test A disease control rating ([2]; test suspension 250 ppm): 100%
Test C disease control rating ([3]; test suspension 250 ppm): 100%

C=CCOC(=O)c1cnn(CCCc2ccc(-c3noc(C(F)(F)F)n3)cc2)c1 [compound 373]
Test B disease control rating ([1]; test suspension 250 ppm): 99* %
Test A disease control rating ([2]; test suspension 250 ppm): 100%
Test C disease control rating ([3]; test suspension 250 ppm): 100%

N#CCNC(=O)c1csc(Cc2ccc(-c3noc(C(F)(F)F)n3)cc2)n1 [compound 393]
Test B disease control rating [1, 5]: 94* %
Test A disease control rating [2, 6]: 100%
Test C disease control rating [3, 6]: 100%

O=C(NC1CCC(F)(F)CC1)c1coc(Cc2ccc(-c3noc(C(F)(F)F)n3)cc2)n1 [compound 395]
Test B disease control rating [1, 5]: 0* %
Test A disease control rating [2, 6]: 95%
Test C disease control rating [3, 6]: 97%

O=C(NCCn1cccn1)c1csc(Cc2ccc(-c3noc(C(F)(F)F)n3)cc2)n1 [compound 396]
Test B disease control rating [1, 5]: 28* %
Test A disease control rating [2, 6]: 100%
Test C disease control rating [3, 6]: 100%

O=C(NCCC(F)(F)F)c1csc(Cc2ccc(-c3noc(C(F)(F)F)n3)cc2)n1 [compound 397]
Test B disease control rating [1, 5]: 82* %
Test A disease control rating [2, 6]: 100%
Test C disease control rating [3, 6]: 98%

O=C(NCCCC(F)(F)F)c1coc(Cc2ccc(-c3noc(C(F)(F)F)n3)cc2)n1 [compound 398]
Test B disease control rating [1, 5]: 80* %
Test A disease control rating [2, 6]: 100%
Test C disease control rating [3, 6]: 97%

O=C(NCC=C(Cl)Cl)c1coc(Cc2ccc(-c3noc(C(F)(F)F)n3)cc2)n1 [compound 399]
Test B disease control rating [1, 5]: 10* %
Test A disease control rating [2, 6]: 100%
Test C disease control rating [3, 6]: 99%

CCOC(=O)c1csc(COc2ccc(-c3noc(C(F)(F)F)n3)cc2)n1 [compound 404]
Test B disease control rating [1, 5]: 0* %
Test A disease control rating [2, 6]: 0%
Test C disease control rating [3, 6]: 68%

O=C(c1ccc(Cc2ccc(-c3noc(C(F)(F)F)n3)cc2)o1)C(F)(F)F [compound 450]
Test B disease control rating [1, 5]: 41* %
Test A disease control rating [2, 6]: 94%
Test C disease control rating [3, 6]: 0%

FC(F)(F)c1nc(-c2ccc(Cc3ccccc3)cc2)no1 [compound 451]
Test B disease control rating [1, 5]: 8* %
Test A disease control rating [2, 6]: 99%
Test C disease control rating [3, 6]: 0%

COC(=O)c1cnc(Oc2ccc(-c3noc(C(F)(F)F)n3)cc2)s1 [compound 452]
Test B disease control rating [1, 5]: 59* %
Test A disease control rating [2, 6]: 81%
Test C disease control rating [3, 6]: 0%

CCOC(=O)c1ccc(Cc2ccc(-c3noc(C(F)(F)F)n3)cc2)cc1 [compound 453]
Test B disease control rating [1, 5]: 50* %
Test A disease control rating [2, 6]: 92%
Test C disease control rating [3, 6]: 0%

COC(=O)c1coc(Cc2ccc(-c3noc(C(F)(F)F)n3)cc2)c1 [compound 456]
Test B disease control rating [1, 5]: 65* %
Test A disease control rating [2, 6]: 100%
Test C disease control rating [3, 6]: 68%

CCOC(=O)c1cnn(CN2CCC(c3noc(C(F)(F)F)n3)CC2)c1 [compound 458]
Test B disease control rating [1, 5]: 0* %
Test A disease control rating [2, 7]: 0%
Test C disease control rating [3, 7]: 0%

CCOC(=O)c1cnn(CCN2CCC(c3noc(C(F)(F)F)n3)CC2)c1 [compound 459]
Test B disease control rating [1, 5]: 0* %
Test A disease control rating [2, 7]: 0%
Test C disease control rating [3, 7]: 0%

COCCNC(=O)c1coc(COc2ccc(-c3noc(C(F)(F)F)n3)cc2)n1 [compound 464]
Test B disease control rating [1, 5]: 94* %
Test A disease control rating [2, 6]: 79%
Test C disease control rating [3, 6]: 23%
